Columns and labels:
[1] = tested on: isogenic clones of HCT116 colon cancer cells; conditions: literature refs (11, 12); cited from earlier work
HCT116 cells = type: cell-based; conditions: human
Excerpt: These findings indicate that high molecular weight ubiquitin substrate complexes accumulating as a result of DUB inhibition can generate strong cytotoxicity that is insensitive to Bcl-2 over-expression. [table]

## CC(C)C[C@H](NC(=O)[C@H](Cc1ccccc1)NC(=O)c1cnccn1)B(O)O [bortezomib, reference compound]
[1]
  sensitivity of apoptosis induction to apoptosis regulators: sensitive to the status of the p53 tumor suppressor and over-expression of the anti-apoptotic Bcl-2 oncoprotein
HCT116 cells
  Fold induction DNAJB1 (Hsp40B1): 5 fold
  Fold induction HSPA1B: 12 fold
  Fold induction HSPA6 (Hsp70B′): 60 fold

From patent US20130079370A1, “Method for the Inhibition of Deubiquitinating Activity” (priority 2011, published 2013)
